In publication PMC2767189 (Clinical Pharmacology and Therapeutics, 2008):
“And” between values parts separate entries of the source, which are not always exact repeats. Equal values may be shown once. Read-outs that look alike come from different tables or passages of the source.

What was measured:
[1] = 300 mg twice daily
[2] = cited from earlier work
clinical = conditions: human, plasma, oral, 300 mg, 300 mg twice daily; for AUC: ABC AUC; for Cmax: ABC Cmax; for Vd/F: ABC Vd/F (volume of distribution); for half-life: ABC half-life
[3] = Intracellular triphosphate; type: in vivo, human; conditions: median ratio, 4 h after dose vs predose; all subjects
[4] = cited from earlier work; remark: listed apart in the source
[5] = target: HIV-1 reverse transcriptase; conditions: cited from earlier work

Nc1nc(NC2CC2)c2ncn([C@H]3C=C[C@@H](CO)C3)c2n1 [ABC, abacavir]
ABC CL/F (apparent oral clearance) ([1]; mean (SD), <18 years (n = 15)): 47.47 (19.52) l/h | ABC CL/F adjusted for body surface area ([1]; mean (SD), <18 years (n = 15)): 481.60 (192.62) ml/min/m^2 | ABC CL/F adjusted for weight ([1]; mean (SD), <18 years (n = 15)): 13.03 (5.31) ml/min/kg | ABC CL/F (apparent oral clearance) ([1]; mean (SD), Total (n = 30)): 45.44 (16.87) l/h | ABC CL/F adjusted for body surface area ([1]; mean (SD), Total (n = 30)): 437.77 (168.51) ml/min/m^2 | ABC CL/F adjusted for weight ([1]; mean (SD), Total (n = 30)): 11.73 (4.84) ml/min/kg | ABC CL/F (apparent oral clearance) ([1]; mean (SD), ≥18 years (n = 15)): 43.40 (14.13) l/h | ABC CL/F adjusted for body surface area ([1]; mean (SD), ≥18 years (n = 15)): 393.93 (132.66) ml/min/m^2 | ABC CL/F (apparent oral clearance) ([1]; median, <18 years (n = 15)): 42.80 L/h | ABC CL/F adjusted for body surface area ([1]; median, <18 years (n = 15)): 382.00 ml/min/m^2 | ABC CL/F (apparent oral clearance) ([1]; median, Total (n = 30)): 44.70 L/h | ABC CL/F adjusted for body surface area ([1]; median, Total (n = 30)): 390.50 ml/min/m^2 | ABC CL/F (apparent oral clearance) ([1]; median, ≥18 years (n = 15)): 45.50 L/h | ABC CL/F adjusted for body surface area ([1]; median, ≥18 years (n = 15)): 399.00 ml/min/m^2 | observed clearance seen in adults (reference value for hypothesis test on AUC) ([2]; adults, reference not printed at the place): 6000 ng·h/mL | abacavir steady-state AUC ([2]; older adults, 300 mg twice daily (~4 mg/kg)): 5000 to 6000 ng·h/mL | abacavir weight-adjusted apparent oral clearance ([2]; translated from 0.86 l/min for a 70-kg adult, ref 12 (McDowell et al.)): 12.3 mL/min/kg | AUC (clinical; mean (SD), <18 years (n = 15)): 7350 ng·h/mL | AUC (clinical; mean (SD), Total (n = 30)): 7480 ng·h/mL | AUC (clinical; mean (SD), ≥18 years (n = 15)): 7610 ng·h/mL | AUC (clinical; median, <18 years (n = 15)): 7010 ng·h/mL | AUC (clinical; median, Total (n = 30)): 6720 ng·h/mL | AUC (clinical; median, ≥18 years (n = 15)): 6590 ng·h/mL | Cmax (clinical; mean (SD), <18 years (n = 15)): 2790 ng/mL | Cmax (clinical; mean (SD), Total (n = 30)): 2860 ng/mL | Cmax (clinical; mean (SD), ≥18 years (n = 15)): 2940 ng/mL | Cmax (clinical; median, <18 years (n = 15)): 2580 ng/mL | Cmax (clinical; median, Total (n = 30)): 2620 ng/mL | Cmax (clinical; median, ≥18 years (n = 15)): 2740 ng/mL | Vd/F (clinical; mean (SD), <18 years (n = 15)): 82.9 L and 1.35 L/kg | Vd/F (clinical; mean (SD), Total (n = 30)): 77.8 L and 1.19 L/kg | Vd/F (clinical; mean (SD), ≥18 years (n = 15)): 72.8 L and 1.04 L/kg | Vd/F (clinical; median, <18 years (n = 15)): 67.1 L and 0.9 L/kg | Vd/F (clinical; median, Total (n = 30)): 71.5 L and 1.05 L/kg | Vd/F (clinical; median, ≥18 years (n = 15)): 73.5 L and 1.1 L/kg | half-life (clinical; mean (SD), <18 years (n = 15)): 1.23 h | half-life (clinical; mean (SD), Total (n = 30)): 1.19 h | half-life (clinical; mean (SD), ≥18 years (n = 15)): 1.14 h | half-life (clinical; median, <18 years (n = 15)): 1.22 h | half-life (clinical; median, Total (n = 30)): 1.23 h | half-life (clinical; median, ≥18 years (n = 15)): 1.34 h

Nc1ccn([C@@H]2CS[C@H](COP(=O)(O)OP(=O)(O)OP(=O)(O)O)O2)c(=O)n1 [Lamivudine-TP, lamivudine triphosphate]
C4/C0 ratio of intracellular TP concentrations [3]: 1.31 and 1.3 | intracellular lamivudine-TP average concentrations ([4]; range of averages in previous studies): 1.7-8.6 pmol/10^6 cells

Cc1cn([C@H]2C[C@H](N=[N+]=[N-])[C@@H](CO[P@](=O)(O)O[P@](=O)(O)OP(=O)(O)O)O2)c(=O)[nH]c1=O [Zidovudine-TP, zidovudine triphosphate]
C4/C0 ratio of intracellular TP concentrations [3]: 1.95 | intracellular zidovudine-TP concentrations ([4]; range seen in previous studies): 6.3-58 fmol/10^6 cells

Nc1nc(=O)c2ncn([C@H]3C=C[C@@H](COP(=O)(O)OP(=O)(O)OP(=O)(O)O)C3)c2[nH]1 [Carbovir-TP, carbovir-triphosphate]
C4/C0 ratio of intracellular TP concentrations [3]: 1.89 and 1.9 | carbovir-TP reverse transcriptase Ki expressed as intracellular amount ([5]; equivalent of 21 nmol/l): ~ 10 fmol/10^6 cells | Ki ([5]; read-out: carbovir-TP reverse transcriptase Ki, ex vitro): 21 nM | intracellular carbovir-TP concentrations ([4]; range reported from previous studies): 4-290 fmol/10^6 cells
